These results are taken from patent US9029384B2, “Phosphatidylinositol 3-kinase inhibitors” (Gilead Calistoga LLC, priority 2012, dated 2015).

Each structure is given as a SMILES string.

One series concerns the target T1, PI3Kδ (Homo sapiens, UniProt O00329).
T1 construct: made in house
As to the kind of experiment: Enzymatic activity of PI3K isoforms, TR-FRET assay (PIP3 formation). The following applies: PI3Kδ; TR-FRET, 2×Km ATP, 10 μM PIP2; read-out: IC50. The class given is biochemical. Put shortly: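 Recombinant heterodimeric class I PI3K; PIP3 product measured by TR-FRET competition with labelled PIP3 for Eu-GRP-1 PH domain. Reaction 30 min at 25 °C, stopped with 10 mM EDTA.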
A general note: In TR-FRET formats the signal depends on donor and acceptor labels being close together.

The test system of a further series is basophils. As to the kind of experiment: Basophil activation in human whole blood (Flow2 CAST kit, CD63 positive cells). The settings on record: Homo sapiens, basophils activated with anti-FcεRI mAb or fMLP, geometric mean. Format: cell-based. The method, then:
Effect on basophil activation was measured in human whole blood using the Flow2 CAST® kit (Buhlmann Laboratories AG, Baselstrasse, Switzerland) following the protocol provided by the manufacturer with minor modifications. Human whole blood was collected into K2-EDTA venipuncture tubes. Whole blood samples were treated with either DMSO (0.3% final) or a serial dilution of compounds in DMSO for 60 minutes at 37° C. Basophils were then activated either with anti-FcεRI mAb or with fMLP. To activate basophils using the anti-FcεRI mAb; 50 μl of whole blood was mixed with 110 μl of stimulation buffer (B-BAT-STB) and 20 μl of anti-FcεRI (B-BAT-STCON). To activate basophils with fMLP; 50 μl of whole blood was mixed with 80 μl of stimulation buffer (B-BAT-STB) and 50 μl of fMLP (B-CCR-FMLP). Stimulation buffer was used as a negative control. 20 μl of the staining reagent (combination of anti-human CD63-FITC and anti-human CCR3-PE mAbs) was then added to each tube. […] Subsequently, erythrocytes were lysed and fixed by the addition of 2 ml of lysing solution (B-BAT-LYR) for 10 min at room temperature. Cells were pelleted by centrifugation at 1200 rpm for 10 min at room temperature in a swing-out rotor. Supernatant was aspirated and cell pellet resuspended in 400 μl of wash buffer. Flow cytometric analysis of the basophil activation was performed on a FC500MPL flow cytometer (Beckman Coulter Inc., Fullerton, Calif.). CCR3-staining and side scatter were applied to gate at least 200 basophils that expressed a high density of CCR3. The percent CD63 positive cells within the gated basophil population were determined in different treatment groups and normalized to the vehicle control (0.3% DMSO) with anti-FcεRI mAb of fMLP stimulus as 100%. Final compound concentration was adjusted to correct for dilution effect of added reagents. The EC50 values were calculated from the analysis of the dose-response curves to a four-parameter equation. All EC50 values represent geometric mean values and are reported in units of nM.

Series [1] in a line: Hepatocyte stability, 0.01% final DMSO, 1 μM substrate (t1/2^b). The class given is in vitro ADME. The settings on record: human, hepatocytes, TA with 0.01% final DMSO, 1 μM substrate, samples at 0, 1, 3, 6 hours; read-out: human hepatocyte t½^b. The procedure:
Alternatively, assay reagents and/or conditions can be modified in determining the inhibitory activities to PI3K isomers. In additional studies, similar assay using TA and 0.01% final DMSO concentration were incubated with 1 million hepatocytes/mL at 1 μM substrate in duplicate. The incubation was carried out at 37° C. with 5% CO2 and saturating humidity.

T1 sequence (O00329 whole entry): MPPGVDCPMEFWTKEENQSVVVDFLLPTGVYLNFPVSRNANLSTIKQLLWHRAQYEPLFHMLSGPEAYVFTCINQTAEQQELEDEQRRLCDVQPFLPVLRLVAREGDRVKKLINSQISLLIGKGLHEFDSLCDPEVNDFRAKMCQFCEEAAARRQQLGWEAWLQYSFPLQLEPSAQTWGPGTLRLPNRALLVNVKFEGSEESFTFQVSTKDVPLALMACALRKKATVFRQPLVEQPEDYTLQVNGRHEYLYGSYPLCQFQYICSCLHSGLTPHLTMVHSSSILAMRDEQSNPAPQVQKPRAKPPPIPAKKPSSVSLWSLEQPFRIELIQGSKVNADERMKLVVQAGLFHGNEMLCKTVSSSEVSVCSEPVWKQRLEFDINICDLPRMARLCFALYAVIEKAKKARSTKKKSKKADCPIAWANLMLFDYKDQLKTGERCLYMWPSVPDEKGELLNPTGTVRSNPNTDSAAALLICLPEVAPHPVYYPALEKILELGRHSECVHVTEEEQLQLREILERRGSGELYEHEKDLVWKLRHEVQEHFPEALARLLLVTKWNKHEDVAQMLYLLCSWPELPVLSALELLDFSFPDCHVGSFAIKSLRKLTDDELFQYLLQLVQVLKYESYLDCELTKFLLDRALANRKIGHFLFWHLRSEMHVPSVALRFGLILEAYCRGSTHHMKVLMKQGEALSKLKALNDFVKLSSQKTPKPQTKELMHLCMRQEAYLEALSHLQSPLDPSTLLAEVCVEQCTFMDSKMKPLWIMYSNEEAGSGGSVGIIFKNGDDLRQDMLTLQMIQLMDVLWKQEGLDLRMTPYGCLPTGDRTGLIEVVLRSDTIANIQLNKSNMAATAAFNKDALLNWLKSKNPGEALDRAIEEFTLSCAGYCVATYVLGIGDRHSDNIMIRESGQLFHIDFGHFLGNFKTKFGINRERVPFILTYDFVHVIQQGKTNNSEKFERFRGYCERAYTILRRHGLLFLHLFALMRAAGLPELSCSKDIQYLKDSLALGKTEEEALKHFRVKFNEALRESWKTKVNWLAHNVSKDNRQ
T1 sequence (P27986 whole entry partner): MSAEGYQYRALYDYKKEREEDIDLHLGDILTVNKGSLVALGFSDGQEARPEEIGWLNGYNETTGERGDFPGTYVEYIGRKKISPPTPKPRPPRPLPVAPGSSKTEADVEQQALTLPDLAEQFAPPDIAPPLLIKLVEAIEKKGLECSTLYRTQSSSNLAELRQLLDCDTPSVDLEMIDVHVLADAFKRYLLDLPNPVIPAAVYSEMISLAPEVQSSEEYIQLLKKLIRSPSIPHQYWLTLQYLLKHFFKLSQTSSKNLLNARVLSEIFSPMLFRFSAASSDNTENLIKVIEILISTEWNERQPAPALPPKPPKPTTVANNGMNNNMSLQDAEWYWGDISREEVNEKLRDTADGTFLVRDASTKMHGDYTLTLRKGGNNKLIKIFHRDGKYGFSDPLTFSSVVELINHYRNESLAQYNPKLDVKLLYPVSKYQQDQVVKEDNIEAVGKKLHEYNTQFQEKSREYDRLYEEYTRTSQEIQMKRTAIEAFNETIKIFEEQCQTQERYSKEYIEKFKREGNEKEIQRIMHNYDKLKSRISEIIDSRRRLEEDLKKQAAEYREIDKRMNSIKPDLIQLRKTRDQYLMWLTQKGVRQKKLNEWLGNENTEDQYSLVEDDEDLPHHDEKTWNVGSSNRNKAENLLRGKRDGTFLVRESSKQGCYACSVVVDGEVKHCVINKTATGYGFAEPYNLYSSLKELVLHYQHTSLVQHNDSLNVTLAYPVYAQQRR

As usually defined, the IC50 is the concentration needed to halve the response being measured. As a reminder, the EC50 is the midpoint of the concentration-response curve. Take `CC(Nc1nc(N)nc(N)c1C#N)c1nc2cccc(Cl)c2c(=O)n1-c1cccc(Cl)c1` (single isomer, unassigned) [Compound 8a]: the IC50 on PI3Kδ was below 1 nM. The EC50 in the series on basophils was in the range of 1 to 10 nM. The half-life at 1 μM in series [1] is 3 to 6 h.
The like results for `CC(Nc1nc(N)nc(N)c1C#N)c1nc2cccc(Cl)c2c(=O)n1-c1cccc(C#N)c1` (single isomer, unassigned) [Compound 12a] were, in that order, 1 to 10 nM, 1 to 10 nM and above 10 h.
For `CC(Nc1nc(N)nc(N)c1C#N)c1nc2ccc(F)cc2c(=O)n1-c1cccc(C#N)c1` (single isomer, unassigned) [Compound 13a], on PI3Kδ, the IC50 lay in the range of 10 to 50 nM. Also, in the series with basophils, the 50% effective concentration (EC50) is 1 to 10 nM. In addition, the half-life at 1 μM in series [1] is above 10 h.
The like results for `CC(Nc1nc(N)nc(N)c1C#N)c1nc2c(Cl)cccc2c(=O)n1-c1ccccc1` (single isomer, unassigned) [Compound 22a] were, in that order, 1 to 10 nM, 1 to 10 nM and above 10 h.
On to `CCC(Nc1nc(N)nc(N)c1C#N)c1nc2ccc(F)cc2c(=O)n1-c1cc(F)cc(F)c1` (single isomer, unassigned) [Compound 26a], for which the IC50 at PI3Kδ lay in the range of 10 to 50 nM. Also, in the series on basophils, the EC50 was 1 to 10 nM. In addition, in series [1], the half-life at 1 μM is above 10 h.
In the same order, the values of `CC(Nc1nc(N)nc(N)c1C#N)c1nc2ccccc2c(=O)n1-c1cc(F)cc(F)c1` (single isomer, unassigned) [Compound 28a] are 10 to 50 nM, 1 to 10 nM and above 10 h.
In the same order, the values of `CC(Nc1nc(N)nc(N)c1C#N)c1nc2ccc(F)c(F)c2c(=O)n1-c1cc(F)cc(F)c1` (single isomer, unassigned) [Compound 29a] are 10 to 50 nM, 1 to 10 nM and above 10 h.
In the same order, the values of `CC(Nc1nc(N)nc(N)c1C#N)c1nc2cccc(Cl)c2c(=O)n1-c1cccc(C(F)(F)F)c1` (single isomer, unassigned) [Compound 47a] are 1 to 10 nM, 1 to 10 nM and 3 to 6 h.
For `CC(Nc1nc(N)nc(N)c1C#N)c1nc2c(C(F)F)cccc2c(=O)n1-c1ccccc1` (single isomer, unassigned) [Compound 56a], the IC50 at PI3Kδ fell in the range of 10 to 50 nM. Moreover, the EC50 in the series with basophils lay in the range of 1 to 10 nM. The half-life at 1 μM in series [1] lay in the range of 6 to 10 h.
In the same order, the values of `CC(Nc1nc(N)nc(N)c1C#N)c1nc2cccc(C(F)F)c2c(=O)n1-c1cccc(C#N)c1` (single isomer, unassigned) [Compound 63a] are 1 to 10 nM, 1 to 10 nM and above 10 h.
The like results for `CC(Nc1nc(N)nc(N)c1C#N)c1nc2c(Cl)cc(F)cc2c(=O)n1-c1cc(F)cc(F)c1` (single isomer, unassigned) [Compound 89a] were, in that order, 1 to 10 nM, 1 to 10 nM and 6 to 10 h.
The like results for `CC(Nc1nc(N)nc(N)c1C#N)c1nc2cccc(C(N)=O)c2c(=O)n1-c1cc(F)cc(F)c1` (single isomer, unassigned) [Compound 91a] were, in that order, 10 to 50 nM, 10 to 50 nM and above 10 h.
Regarding `CC(Nc1nc(N)nc(N)c1C#N)c1nc2cccc(S(C)(=O)=O)c2c(=O)n1-c1cc(F)cc(C(F)F)c1` (single isomer, unassigned) [Compound 98a], at PI3Kδ, the IC50 fell in the range of 10 to 50 nM. The concentration giving a half-maximal response (EC50) in the series on basophils was above 50 nM. Further, the half-life at 1 μM in series [1] is 3 to 6 h.
In the same order, the values of `COc1cccc(-n2c(C(C)Nc3nc(N)nc(N)c3C#N)nc3cccc(Cl)c3c2=O)c1C` (single isomer, unassigned) [Compound 109a-2] are below 1 nM, 1 to 10 nM and 1 to 3 h.
The like results for `CC(Nc1nc(N)nc(N)c1C#N)c1nc2cccc(C#N)c2c(=O)n1-c1cc(F)cc(F)c1` (single isomer, unassigned) [Compound 112a] were, in that order, 1 to 10 nM, 1 to 10 nM and above 10 h.
Regarding `CC(Nc1nc(N)nc(N)c1C#N)c1nc2cccc(Cl)c2c(=O)n1-c1cccc(CC(F)F)c1` (single isomer, unassigned) [Compound 120a], the IC50 at PI3Kδ fell in the range of 1 to 10 nM. Also, the EC50 in the series on basophils is 1 to 10 nM. Also, the half-life at 1 μM in series [1] lay within 1 to 3 h.
As to `CC(Nc1nc(N)nc(N)c1Cl)c1nc2c(F)ccc(Cl)c2c(=O)n1-c1ccccc1` (single isomer, unassigned) [Compound 127a], the IC50 on PI3Kδ fell in the range of 1 to 10 nM. In the series on basophils, the EC50 lay in the range of 1 to 10 nM. Besides, in series [1], the half-life at 1 μM lay in the range of 1 to 3 h.
As to `COCC(Nc1nc(N)nc(N)c1C#N)c1nc2cccc(Cl)c2c(=O)n1-c1cc(F)cc(F)c1` (single isomer, unassigned) [Compound 135a], the IC50 on PI3Kδ was in the range of 1 to 10 nM. Moreover, the EC50 with basophils is 1 to 10 nM. The half-life at 1 μM in series [1] lay within 1 to 3 h.
`CC(Nc1nc(N)nc(N)c1C#N)c1nc2ccc(F)c(Cl)c2c(=O)n1-c1cc(F)cc(F)c1` (single isomer, unassigned) [Compound 140a]: on PI3Kδ, the IC50 was in the range of 1 to 10 nM. Besides, the EC50 in the series on basophils is 1 to 10 nM. Moreover, the half-life at 1 μM in series [1] lay in the range of 3 to 6 h.
Take `CC(Nc1nc(N)nc(N)c1C#N)c1nc2cccc(Cl)c2c(=O)n1-c1c(F)cccc1F` (single isomer, unassigned) [Compound 145a]: the IC50 on PI3Kδ lay within 1 to 10 nM. Further, the EC50 in the series on basophils was 1 to 10 nM. Further, the half-life at 1 μM in series [1] was 6 to 10 h.
Consider `CC(Nc1nc(N)nc(N)c1C#N)c1nc2c(F)ccc(F)c2c(=O)n1-c1cccc(C#N)c1` (single isomer, unassigned) [Compound 149a], for which, on PI3Kδ, the 50% inhibitory concentration (IC50) is 10 to 50 nM. In the series with basophils, the EC50 was in the range of 1 to 10 nM. The half-life at 1 μM in series [1] is 6 to 10 h.
In the same order, the values of `CCC(Nc1nc(N)nc(N)c1C#N)c1nc2c(F)ccc(F)c2c(=O)n1-c1ccccc1` (single isomer, unassigned) [Compound 150a] are 1 to 10 nM, 1 to 10 nM and 3 to 6 h.
The like results for `CCC(Nc1nc(N)nc(N)c1C#N)c1nc2c(F)ccc(F)c2c(=O)n1-c1cccc(F)c1` (single isomer, unassigned) [Compound 151a] were, in that order, 1 to 10 nM, 1 to 10 nM and 3 to 6 h.
The like results for `CCC(Nc1nc(N)nc(N)c1C#N)c1nc2c(F)ccc(F)c2c(=O)n1-c1cccc(C#N)c1` (single isomer, unassigned) [Compound 152a] were, in that order, 10 to 50 nM, 1 to 10 nM and 3 to 6 h.
Turning to `CC(Nc1nc(N)nc(N)c1C#N)c1nc2c(C#N)cc(F)cc2c(=O)n1-c1ccccc1` (single isomer, unassigned) [Compound 155a], the IC50 at PI3Kδ was 1 to 10 nM. Further, the EC50 with basophils was 10 to 50 nM. Moreover, the half-life at 1 μM in series [1] was above 10 h.
In the same order, the values of `CC(Nc1nc(N)nc(N)c1C#N)c1nc2c(C#N)cccc2c(=O)n1-c1cccc(C(F)F)c1` (single isomer, unassigned) [Compound 160a] are 1 to 10 nM, 1 to 10 nM and 3 to 6 h.
The like results for `CCCC(Nc1nc(N)nc(N)c1C#N)c1nc2cccc(F)c2c(=O)n1-c1cc(F)cc(F)c1` (single isomer, unassigned) [Compound 175a] were, in that order, 1 to 10 nM, 1 to 10 nM and 6 to 10 h.
As to `CC(Nc1nc(N)nc(N)c1C#N)c1nc2ccc(F)c(Cl)c2c(=O)n1-c1cccc(C#N)c1` (single isomer, unassigned) [Compound 176a], the IC50 at PI3Kδ fell in the range of 10 to 50 nM. In addition, the EC50 in the series on basophils is 1 to 10 nM. For the same compound, the half-life at 1 μM in series [1] is above 10 h.
The like results for `CCC(Nc1nc(N)nc(N)c1C#N)c1nc2ccc(F)cc2c(=O)n1-c1cccc(F)c1` (single isomer, unassigned) [Compound 178a] were, in that order, 1 to 10 nM, 1 to 10 nM and above 10 h.
The like results for `CCC(Nc1nc(N)nc(N)c1C#N)c1nc2cccc(F)c2c(=O)n1-c1cccc(F)c1` (single isomer, unassigned) [Compound 179a] were, in that order, 1 to 10 nM, 1 to 10 nM and 6 to 10 h.
